Source: patent publication US20120065187A1 (ALCON RESEARCH, LTD, priority 2008, published 2012)
Structures can show the parent of a compound that is named as a salt.

Tests used:
[1] = target: T1, human H4 (Homo sapiens, UniProt Q9H3N8); assay: In vitro histamine receptor cell-based assay (aequorin bioluminescence), H4 antagonism; details: CHO-K1 cells expressing human H4, aequorin and Gα16; histamine at EC80; read-out: H4 Antagonist EC50
T1 construct: host or cells: CHO-K1
Summary of the method: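 CHO-K1 cells stably expressing human H4, Gα16 and mitochondrial aequorin, loaded with 5 μM coelenterazine-h, preincubated 15 min at room temperature with compound, then challenged with histamine at EC80.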

[2] = target: T2, human H1 (Homo sapiens, UniProt P35367); assay: In vitro histamine receptor cell-based assay (aequorin bioluminescence), H1 antagonism; details: CHO-K1 cells expressing human H1 and aequorin; histamine at EC80; read-out: H1 Antagonist EC50
T2 construct: host or cells: CHO-K1
T2 sequence (P35367 whole entry): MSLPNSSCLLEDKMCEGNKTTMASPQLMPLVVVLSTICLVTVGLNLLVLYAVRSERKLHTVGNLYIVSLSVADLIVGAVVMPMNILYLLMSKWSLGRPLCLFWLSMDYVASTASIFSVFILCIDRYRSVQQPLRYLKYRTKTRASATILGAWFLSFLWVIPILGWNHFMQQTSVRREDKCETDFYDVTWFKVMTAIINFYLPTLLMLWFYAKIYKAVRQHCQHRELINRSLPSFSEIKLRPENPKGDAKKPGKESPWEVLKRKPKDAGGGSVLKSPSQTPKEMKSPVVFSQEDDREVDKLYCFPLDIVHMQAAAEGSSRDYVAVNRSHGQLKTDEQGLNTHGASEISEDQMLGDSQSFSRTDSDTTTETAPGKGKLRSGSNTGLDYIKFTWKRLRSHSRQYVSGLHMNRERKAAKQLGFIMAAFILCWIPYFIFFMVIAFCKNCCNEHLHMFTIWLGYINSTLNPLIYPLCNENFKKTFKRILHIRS
Summary of the method: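 Stable CHO-K1 lines expressing human H1 or H4 (H4 with Gα16) plus mitochondrial aequorin, loaded 4 h with 5 μM coelenterazine-h at ~21 °C. Compounds preincubated 15 min, then histamine at EC80 added; bioluminescence decrease (AUC or max–min) expressed as % of positive control (diphenhydramine for H1, JNJ7777120 for H4, 10 μM).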

T1 sequence (Q9H3N8 whole entry): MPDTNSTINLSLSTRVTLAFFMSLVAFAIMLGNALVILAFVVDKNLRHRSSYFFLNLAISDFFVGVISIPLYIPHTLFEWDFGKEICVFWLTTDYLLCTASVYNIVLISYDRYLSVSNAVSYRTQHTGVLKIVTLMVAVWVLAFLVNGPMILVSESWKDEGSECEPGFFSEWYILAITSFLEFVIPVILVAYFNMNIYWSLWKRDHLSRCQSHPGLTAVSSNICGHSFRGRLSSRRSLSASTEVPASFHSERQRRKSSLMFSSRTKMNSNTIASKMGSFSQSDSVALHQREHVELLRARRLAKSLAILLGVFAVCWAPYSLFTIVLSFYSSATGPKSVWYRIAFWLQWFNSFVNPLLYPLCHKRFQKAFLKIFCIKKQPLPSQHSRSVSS

SMILES	EC50 [1]	EC50 [2]
Clc1ccc2nc(N3CCN4CCCC4C3)c3nncn3c2c1 (stereo not shown) [Example 65, 8-chloro-4-(hexahydropyrrolo[1,2-a]pyrazin-2(1H)-yl)-[1,2,4]triazolo[4,3-a]quinoxaline]	< 10 µM	> 10 µM
FC(F)(F)c1ccc2c(c1)nc(N1CCNCC1)c1nnnn12 [Example 30, 4-(piperazin-1-yl)-7-(trifluoromethyl)tetrazolo[1,5-a]quinoxaline hydrochloride]	< 10 µM	> 10 µM
Cc1ccc2nc(N3CCNCC3)c3nnnn3c2c1 [Example 18, 8-Methyl-4-(piperazin-1-yl)tetrazolo[1,5-a]quinoxaline]	< 10 µM	> 10 µM
Cc1cc2c(cc1F)nc(N1CCN(C)CC1)c1nncn12 [Example 34, 7-fluoro-8-methyl-4-(4-methylpiperazin-1-yl)-[1,2,4]triazolo[4,3-a]quinoxaline]	< 10 µM	> 10 µM
Fc1cc2nc(N3CCNCC3)c3nccn3c2cc1F [Example 182, 7,8-difluoro-4-(piperazin-1-yl)imidazo[1,2-a]quinoxaline]	< 10 µM	< 10 µM
Fc1cc(Cl)cc2nc(N3CCNCC3)c3nncn3c12 [Example 192, 7-chloro-9-fluoro-4-(piperazin-1-yl)-[1,2,4]triazolo[4,3-a]quinoxaline]	> 10 µM	> 10 µM
CN1CCN(c2nc3ccc(C(F)(F)F)cc3c3cn(C)nc23)CC1 [Example 155, 2-Methyl-4-(4-methylpiperazinyl)-8-(trifluoromethyl)pyrazolo[3,4-c]quinoline]	< 10 µM	> 10 µM
Brc1ccc2nc(N3CCNCC3)c3nocc3c2c1 [Example 223, 8-bromo-4-(piperazin-1-yl)isoxazolo[3,4-c]quinoline]	< 10 µM	< 10 µM
Clc1ccc2nc(C3=CCNCC3)c3nncn3c2c1 [Example 1, 8-chloro-4-(1,2,3,6-tetrahydropyridin-4-yl)-[1,2,4]triazolo[4,3-a]quinoxaline]	> 10 µM	> 10 µM
CN1CCN(C2=Nc3ccc(Cl)cc3N3CCN=C23)CC1 [Example 5, 8-Chloro-4-(4-methylpiperazin-1-yl)-1,2-dihydroimidazo[1,2-a]quinoxaline]	< 10 µM	> 10 µM
Clc1ccc2nc(N3CCNCC3)c3nccn3c2c1 [Example 8, 8-Chloro-4-(piperazin-1-yl)imidazo[1,2-a]quinoxaline]	< 10 µM	> 10 µM
CN1CCN(c2nc3ccc(Cl)cc3c3ocnc23)CC1 [Example 141, 8-chloro-4-(4-methylpiperazin-1-yl)oxazolo[4,5-c]quinoline]	< 10 µM	< 10 µM
Cc1cc2c(cc1F)nc(N1CCNCC1)c1nncn12 [Example 35]	> 10 µM	> 10 µM
NCCNc1nc2ccc(Cl)cc2n2cnnc12 [Example 70, N^1-(8-chloro-[1,2,4]triazolo[4,3-a]quinoxalin-4-yl)ethane-1,2-diamine]	> 10 µM	> 10 µM
Cc1nc2c3cc(OC(F)(F)F)ccc3nc(N3CCNCC3)n2n1 [Example 134, 2-methyl-5-(piperazin-1-yl)-9-(trifluoromethoxy)-[1,2,4]triazolo[1,5-c]quinazoline hydrochloride]	< 10 µM	> 10 µM
CCCc1ccc2nc(N3CCN(C)CC3)c3nncn3c2c1 [Example 175, 4-(4-methylpiperazin-1-yl)-8-propyl-[1,2,4]triazolo[4,3-a]quinoxaline]	< 10 µM	> 10 µM

SMILES	EC50 [1]	EC50 [2]
Brc1ccc2c(c1)nc(N1CCNCC1)c1nncn12 [Example 53, 7-bromo-4-(piperazin-1-yl)-[1,2,4]triazolo[4,3-a]quinoxaline]	> 10 µM	> 10 µM
Cc1nc2c3cc(F)c(F)cc3nc(N3CCNCC3)n2n1 [Example 98, 8,9-Difluoro-2-methyl-5-(piperazin-1-yl)-[1,2,4]triazolo[1,5-c]quinazoline]	< 10 µM	> 10 µM
Clc1ccc2c(c1)nc(N1CCNCC1)c1nnnn12 [Example 16, 7-Chloro-4-(piperazin-1-yl)tetrazolo[1,5-a]quinoxaline]	< 10 µM	> 10 µM
CN1CCN(c2nc3cc(Cl)ccc3c3nccnc23)CC1 [Example 250, 8-chloro-5-(4-methylpiperazin-1-yl)pyrazino[2,3-c]quinoline]	< 10 µM	< 10 µM
Cc1nc2c3cc(Cl)c(Cl)cc3nc(N3CCNCC3)n2n1 [Example 94, 8,9-Dichloro-2-methyl-5-(piperazin-1-yl)-[1,2,4]triazolo[1,5-c]quinazoline]	< 10 µM	> 10 µM
CNC1CCN(c2nc3ccc(Cl)cc3n3cnnc23)C1 (stereo not shown) [Example 60, 1-(8-chloro-[1,2,4]triazolo[4,3-a]quinoxalin-4-yl)-N-methylpyrrolidin-3-amine]	< 10 µM	> 10 µM
Cc1nnc2c(N3CCNCC3)nc3ccc(Cl)cc3n12 [Example 85, 8-chloro-1-methyl-4-(piperazin-1-yl)-[1,2,4]triazolo[4,3-a]quinoxaline]	> 10 µM	> 10 µM
Clc1ccc2nc(NC3CCNCC3)c3nncn3c2c1 [Example 73, 8-chloro-N-(piperidin-4-yl)-[1,2,4]triazolo[4,3-a]quinoxalin-4-amine]	> 10 µM	> 10 µM
COc1ccc2nc(N3CCN(C)CC3)n3nc(C)nc3c2c1 [Example 101, 9-Methoxy-2-methyl-5-(4-methylpiperazin-1-yl)-[1,2,4]triazolo[1,5-c]quinazoline]	< 10 µM	> 10 µM
Cc1ccc2nc(N3CCN(C)CC3)c3nnnn3c2c1 [Example 15, 8-methyl-4-(4-methylpiperazin-1-yl)tetrazolo[1,5-a]quinoxaline]	< 10 µM	> 10 µM
Clc1ccc2nc(N3CC4CNCC4C3)c3nncn3c2c1 (stereo not shown) [Example 69, 8-chloro-4-(hexahydropyrrolo[3,4-c]pyrrol-2(1H)-yl)-[1,2,4]triazolo[4,3-a]quinoxaline]	> 10 µM	> 10 µM
Cc1nc2c3ccc(F)cc3nc(N3CCN(C)CC3)n2n1 [Example 107, 8-Fluoro-2-methyl-5-(4-methylpiperazin-1-yl)-[1,2,4]triazolo[1,5-c]quinazoline]	< 10 µM	> 10 µM
CN1CCN(c2nc3cc(C(F)(F)F)c(Cl)cc3n3cnnc23)CC1 [Example 46, 8-Chloro-4-(4-methylpiperazin-1-yl)-7-(trifluoromethyl)-[1,2,4]triazolo[4,3-a]quinoxaline]	< 10 µM	> 10 µM
CN1CCN(c2nc3ccc(Cl)cc3c3nncn23)CC1 [Example 14, 9-chloro-5-(4-methylpiperazin-1-yl)-[1,2,4]triazolo[4,3-c]quinazoline]	> 10 µM	< 10 µM
Cn1cnc2c(N3CCNCC3)nc3ccc(Cl)cc3c21 [Example 158, 8-Chloro-1-methyl-4-(piperazin-1-yl)-1H-imidazo[4,5-c]quinoline]	> 10 µM	> 10 µM
CN1CCN(c2nc3cc(Cl)ccc3n3nnnc23)CC1 [Example 17, 7-Chloro-4-(4-methylpiperazin-1-yl)tetrazolo[1,5-a]quinoxaline]	< 10 µM	> 10 µM
